Reference: patent US8748369B2, “Use of targeted nitroxide agents in bone healing” (University of Pittsburgh-Of the Commonwealth System of …, priority 2009, dated 2014)
Each block holds one molecule with its values, some of them ahead of it.

Legend:
[1] = system: mitochondria of 32D c13 hemopoietic cells; assay: Mass spectrometry of compounds in mitochondria isolated from 32D cl3 cells; type: cell-based, mouse; settings: 100 μM; for permeation of the mitochondrial membrane (unconjugated compound): two hours at 37° C.; for Fmole/l 0 M mitochondrial protein (relative quantification of conjugate concentration at the target site): mouse, 2 h
Description: An unconjugated and conjugated NOS antagonist, (AMT, 100 μM) and an unconjugated and conjugated nitroxide derivative (4-amino-TEMPO, 100 μM) were incubated for two hours at 37° C. with 32D c13 hemopoietic cells.
Following incubation, the cells were lysed and the mitochondria isolated for a mass spectrometry analysis where compounds isolated from mitochondria were identified as Na+ adducts. […] Thus, the targeting peptides successfully direct a NOS antagonist and a nitroxide to the mitochondria.
Quantitative mass spectrometry studies were used to compare the effectiveness of several AMT peptide conjugates in permeating the mitochondrial membrane, specifically XJB-5-234, XJB-5-133, XJB-5-241, and XJB-5-127. The Fmole/10 μM mitochondrial protein ratio provides a relative quantification of conjugate concentration at the target site.

[2] = system: mouse embryonic cells (MEC); assay: ActD-induced apoptosis in MECs (PS externalization, caspase-3, DNA fragmentation); type: cell-based; settings: low concentrations (10 μM)
Excerpt: Cells that annexin V-positive and PI-negative were considered apoptotic.

[3] = system: mouse embryonic cells (MEC), mitochondria; assay: EPR-based analysis of integration and reduction of nitroxide conjugates in MECs; type: cell-based; settings: MECs incubated with 10 μM compound
Description: Electron paramagnetic resonance (“EPR”) spectroscopy was used to monitor the cellular delivery of compounds 5a and 5b shown in FIG. 3 in mouse embryonic cells (“MEC”).
The following conditions were used during the EPR-based analysis of the integration and reduction of nitroxide Gramicidin S-peptidyl conjugates in MECs. The MECs at a concentration of 10 million MECs per mL were incubated with 10 μM of 4-AT and compound 5a, respectively. Recovered nitroxide radicals in whole cells, mitochondria, and cytosol fractions were resuspended in phosphate buffer saline (“PBS”) in the presence and absence, respectively, of 2 μM K3Fe(CN)6.

[4] = system: 32D cl 3 murine hematopoietic cells; assay: Irradiation survival curves of 32D cl 3 cells; type: cell-based, mouse; settings: cells incubated in compound
Description: FIG. 16 illustrates the effect of GS conjugated nitroxide, XJB-5-125, on gamma-irradiation dose survival curves of 32D cl 3 murine hematopoietic cells.
Irradiation survival curves were performed on cells from the 32D cl 3 mouse hematopoietic progenitor cell line, incubated in 10 μM JP4-039 for 1 hour before irradiation, or plated in methycellulose containing 10 μM JP4-030 after irradiation. Cells were irradiated from 0 to 8 Gy, plated in 0.8% methycellulose containing media, and incubated for 7 days at 37° C. Colonies of greater than 50 cells were counted and data analyzed by linear quadratic and single-hit, multi-target models.

[5] = system: rat ileal mucosal permeability following hemorrhagic shock; assay: Intestinal mucosal permeability assay (FD4) after hemorrhagic shock; type: in vivo; settings: intraluminal
Description: Intestinal Mucosal Permeability Assay. Animals were allowed access to water but not food for 24 h prior to the experiment in order to decrease the volume of intestinal contents. The rats were instrumented as described above. A midline laparotomy was performed and the small intestine was exteriorized from the duodenojejunal junction to the ileocecal valve. A small incision was made on the antimesenteric aspect of the proximal small intestine and saline solution (1.5 ml) was injected. The bowel was ligated proximally and distally to the incision with 4-0 silk (Look, Reading, Pa.).
The small intestine was compressed gently in aboral direction along its length to displace intestinal contents into the colon. Starting 5 cm from the ileocecal valve, the ileum was partitioned into six contiguous water-tight segments. […]
The remaining four other segments were injected with solutions containing either 4-hydroxy-2,2,6,6-tetramethylpiperidine-N-oxyl (TEMPOL) or one of the Gramicidin S-based compounds. Four different final concentrations of TEMPOL in normal saline were evaluated: 0.1, 1, 5 and 20 mM. […]
Fluorescence of FD4 in the solution inside the beaker and within each gut sac was measured using a fluorescence spectrophotometer (LS-50, Perkin-Elmer, Palo Alto, Calif.) at an excitation wavelength of 492 nm and an emission wavelength of 515 nm. […]

[6] = system: rats subjected to volume-controlled hemorrhagic shock; assay: Survival of rats subjected to volume-controlled hemorrhagic shock; type: in vivo, rat; settings: 2 μmol/kg intravenous, no resuscitation
Description: Survival of Rats Subjected to Volume-controlled Hemorrhagic Shock. Following surgical preparation and a 5-min stabilization period to obtain baseline readings, rats were subjected to hemorrhagic shock. Bleeding was carried out in 2 phases.
Initially, 21 ml/kg of blood was withdrawn over 20 min. Immediately thereafter, an additional 12.5 ml/kg of blood was withdrawn over 40 min. Thus, hemorrhage occurred over a total period of 60 min and the total blood loss was 33.5 ml/kg or approximately 55% of the total blood volume. Rats were randomly assigned to receive XJB-5-131 (2 μmmol/kg) or its vehicle, a 33:67 (v/v) mixture of DMSO and normal saline. XJB-5-131 solution or vehicle alone was administered as a continuous infusion during the last 20 min of the hemorrhage period. The total volume of fluid infused was 2.8 ml/kg and it was administered intravenously using a syringe pump (KD100, KD Scientific, New Hope, Pa.). […] At the end of the 6 hour observation period, animals that were still alive were euthanized with an overdose of KCl.
Blood pressure was recorded continuously using a commercial strain-gauge transducer, amplifier, and monitor (590603a, SpaceLabs, Redmond, Wash.). […] Hemoglobin concentration [Hb], lactate and glucose concentration were determined using an auto-analyzer (Model ABL 725, Radiometer Copenhagen, Westlake, Ohio). […]

Structure (SMILES): CC1CCN=C(N)S1 (stereo not drawn) [AMT, 2-amino-6-methyl-thiazine, reference compound]
permeation of the mitochondrial membrane (unconjugated compound) [1]: do not enter the mitochondria membrane in substantial quantities

Structure (SMILES): CC1(C)CC(N)CC(C)(C)N1[O] [Compound 4-AT, 4-amino-TEMPO, reference compound]
protection of MECs against ActD-induced apoptosis [2]: afforded no protection
integration into cells and mitochondria (EPR signal of nitroxide radicals) [3]: did not effectively permeate cells or the mitochondria
permeation of the mitochondrial membrane (unconjugated compound) [1]: only permeate the mitochondrial membrane with the assistance of the attached GS-derived targeting sequence

Structure (SMILES): CC1(C)CC(O)CC(C)(C)N1[O] [TEMPOL, 4-hydroxy-2,2,6,6-tetramethylpiperidine-N-oxyl, reference compound]
Do of gamma-irradiation survival curve [4]: 1.209 Gy

Structure (SMILES): CC(C)C[C@@H](/C=C/[C@H](Cc1ccccc1)C(=O)N1CCC[C@H]1C(=O)N[C@H](C(=O)N[C@@H](CCCNC(=O)OCc1ccccc1)C(=O)NC1CC(C)(C)N([O])C(C)(C)C1)C(C)C)NC(=O)OC(C)(C)C [XJB-5-131]
integration into cells and mitochondria (EPR signal of nitroxide radicals) [3]: concentrated in the mitochondria
integration into cells and mitochondria (EPR signal of nitroxide radicals) ([3]; listed as 5a): integration and one-electron reduction
hemorrhagic shock-induced mucosal hyperpermeability relative to control value [5]: approximately 60%
survival versus vehicle [6]: survived significantly longer

Fmole/l 0 M mitochondrial protein (relative quantification of conjugate concentration at the target site) [1]: 89.8 Fmole/l 0 M mitochondrial protein
Structure (SMILES): CC(C)C[C@@H](/C=C/[C@H](Cc1ccccc1)C(=O)N1CCC[C@H]1C(=O)N[C@H](C(=O)N[C@@H](CCCNC(=O)OCc1ccccc1)C(=O)NC1=NCCC(C)S1)C(C)C)NC(=O)OC(C)(C)C (stereo partly drawn) [XJB-5-133, Boc-Leu-ψ[(E)-CH═CH]-^DPhe-Pro-Val-Orn(Cbz)-AMT]

Fmole/l 0 M mitochondrial protein (relative quantification of conjugate concentration at the target site) [1]: 1.45 Fmole/l 0 M mitochondrial protein
Structure (SMILES): CC(C)C[C@@H](/C=C/[C@H](Cc1ccccc1)C(=O)NC1=NCCC(C)S1)NC(=O)OC(C)(C)C (stereo partly drawn) [XJB-5-234, Boc-Leu-ψ[(E)-CH═CH]-^DPhe-AMT]

Fmole/l 0 M mitochondrial protein (relative quantification of conjugate concentration at the target site) [1]: 103.3 Fmole/l 0 M mitochondrial protein
Structure (SMILES): C/C(=C\[C@H](Cc1ccccc1)C(=O)N1CCC[C@H]1C(=O)N[C@H](C(=O)N[C@@H](CCCNC(=O)OCc1ccccc1)C(=O)NC1=NCCC(C)S1)C(C)C)[C@H](CC(C)C)NC(=O)OC(C)(C)C (stereo partly drawn) [XJB-5-241, Boc-Leu-104 [(E)-C(CH3)═CH]-^DPhe-Pro-Val-Orn(Cbz)-AMT]
